Measured values as given in patent publication US11013716B2, “Method for providing an increased expression of telomerase, brain-derived neurotrophic factor, stromal cell-derived factor-1, CXC chemokine receptor 4, and/or immune regulatory factor of stem cell” (HAWKING BIOLOGICAL TECHNOLOGY CO., LTD, priority 2013, dated 2021).

Experiments:
[1] = Phase I metabolism assay of n-butylidenephthalide, dog hepatic microsomes, LC-MS/MS; format: in vitro ADME; conditions: Dog hepatic microsomes 0.5 mg/mL, BP 2 mM, NADPH, 37° C., 60 minutes
Source text: (§1) It has been known that the medicine metabolic pathway within an organism's liver can be primarily divided into phase I and phase II metabolism. Phase I metabolism occurs mainly by the redox reaction or hydrolysis reaction of medicine, while phase II metabolism occurs mainly by […]. This example simulated the phase I and II metabolism of butylidenephthalide that occur within an organism's liver by respectively mixing butylidenephthalide with hepatic microsomes or cryopreserved hepatocytes in vitro. The products in the reaction solution were analyzed by liquid chromatograph-tandem mass spectrometer (LC-MS/MS) to identify the metabolites and the metabolic profile. The experimental steps were as follows:
(§2) n-Butylidenephthalide (comprising Z-BP 95%+E-BP 5%; purchased from ECHO Chemical) (2 mM) was mixed respectively with K3PO4 buffer solution (100 mM, pH7.4) containing human, rats or dogs hepatic micrsomes (0.5 mg/mL). The mixture was maintained at 37° C. for 10 minutes, and then pre-warmed cofactors (NADPH (2 mM) and MgCl2 (3 mM)) were added thereto and the mixture was incubated at 37° C. for 60 minutes. Thereafter, 3-fold volume of acetonitrile containing 0.1% formic acid was added to the mixture to terminate the reaction. The mixture was centrifuged at 13000 rpm for 5 minutes. The supernatant was then collected and analyzed by LC-MS/MS to identify the metabolites.
(§3) The samples obtained from (1) and (2) were separately dissolved in acetonitrile/0.1% formic acid, centrifuged at 45000 g, 4° C. for 10 minutes. Then, an aliquot (20 μl) of each sample was injected into an autosampler vial (Agilent Technologies, USA) of a LC-MS/MS system to perform LC-MS/MS analysis. The LC-MS/MS system comprises an ABSCIEX 5500 Q TRAP™ system with 1200SL HPLC system (Agilent Technologies, USA), a HPLC column (Symmetry® C18, 3.5 μM, 4.6×75 mm), and a autosampler (Agilent Technologies, USA). A two-solvent system (solvent A: 0.1% formic acid; solvent B: methanol containing 0.1% formic acid) was used to perform HPLC at a flow rate of 0.8 mL/min. The HPLC gradient system was set as follows: 0 to 2 minutes held at 10% solvent B; 2 to 7 minutes with a gradient from 10% to 95% solvent B; 7 to 12 minutes held at 95% solvent B; 12 to 14 minutes with a gradient from 95% to 10% solvent B; 14 to 20 minutes held at 10% solvent B; and the retention time of HPLC analysis is 20 minutes. The mass spectrometry analysis was performed in positive ion electrospray ionization (+ESI) mode at 5.5 kV, 550° C., and N2 (nitrogen) was used as an auxiliary gas. The most intense peaks in the LC-MS/MS spectrum and the mass-shifted peaks in the LC-MS/MS spectrum of each sample as compared to n-butylidenephthalide spectrum were analyzed by LightSight™ Software to determine the metabolites in the samples and identifying the biotransformation pathway and metabolic profile of n-butylidenephthalide in an organism. The results are shown in Table 1, Table 2, FIG. 1A, FIG. 1B and FIG. 1C.

[2] = Phase I metabolism assay of n-butylidenephthalide, human hepatic microsomes, LC-MS/MS; format: in vitro ADME; conditions: Human hepatic microsomes 0.5 mg/mL, BP 2 mM, NADPH, 37° C., 60 minutes
Source text: as §1, §2, §3

[3] = Phase I metabolism assay of n-butylidenephthalide, rat hepatic microsomes, LC-MS/MS; format: in vitro ADME; conditions: Rat hepatic microsomes 0.5 mg/mL, BP 2 mM, NADPH, 37° C., 60 minutes
Source text: as §1, §2, §3

[4] = test system: dog hepatocytes; assay: Phase II metabolism assay of n-butylidenephthalide, dog hepatocytes, LC-MS/MS; format: in vitro ADME; conditions: Dog cryopreserved hepatocytes, BP 50 μM, 37° C., 6 hours
Source text: as §1
(§4) William's E medium containing 5×10^5 thawed human, rat or dog hepatocytes were respectively added into a 12-well culture dish, and the cells were cultured for 6 hours. Then, 0.5 mL of n-butylidenephthalide (comprising Z-BP 95%+E-BP 5%; purchased from ECHO Chemical) (50 μM) was added into the culture dish. After the cells were incubated at 37° C., 95% relative humidity and 5% CO2 for 6 hours, 2 mL of acetonitrile (100%) was added to terminate the reaction. […] The supernatant was then collected, dried, and analyzed by LC-MS/MS to identify the metabolites of n-butylidenephthalide. […]

[5] = test system: SOD1-G93A transgenic mice; assay: Survival of SOD1-G93A transgenic mice (amyotrophic lateral sclerosis model); format: in vivo; conditions: oral
Source text: It has been known that about 20% of amyotrophic lateral sclerosis patients were associated with mutations in the gene that encodes Cu/Zn superoxide dismutase enzyme (SOD1), and G93A was the major mutation site.
(§5) This example used the above SOD1-G93A transgenic mice as the object of study to perform in vivo analysis.

[6] = test system: SOD1-G93A transgenic mice; assay: BBB scale of the hind limbs of SOD1-G93A transgenic mice; format: in vivo; conditions: 500 mg/kg once daily oral; FIG. 3
Method: as §5
After the mice were treated for 30 days, the hind limbs of the mice were examined by BBB scale (Basso, Beattie, and Bresnahan (BBB) Locomotor Rating Scale). […] BBB scale is used to record the efficiency of the treatments.

[7] = test system: interleukin 6 (IL-6); assay: Gene expression level in ADSCs by RT-PCR: IL-6; format: cell-based, human; conditions: ADSCs, 10, 20 or 50 μg/ml, 12 hours; FIG. 5
Method: (§6) Human ADSCs were isolated from human adipose tissue by the following steps. Human adipose tissue from clinical research was washed with equal volumes of phosphate-buffered saline (PBS) and minced with fine scissors. Then, the tissue was digested with 0.075% collagenase type I (Sigma-Aldrich Co., St. Louis, Mo., USA) at 37° C. for 30 to 60 minutes, and a Dulbecco's modified Eagle's medium (DMEM)/F-12 (Invitrogen, Carlsbad, Calif., USA) containing 10% fetal bovine serum (FBS, Invitrogen) was added to terminate the digestion. The digested adipose tissue cells were filtered through a 100 μm nylon mesh to remove the cellular debris. The cell suspension was centrifuged for 10 minutes to obtain a pellet and cultured at 37° C., 5% CO2 in a culture media (DMEM/F-12 containing 10% FBS, 100 U/mL penicillin, and 100 μg/mL streptomycin). Following the incubation, the plates were washed with PBS to remove the residual non-adherent red blood cells. […]
(§7) ADSCs (2×10^5 cells/well) were cultured in a 6 well dish in a 37° C. incubator overnight. […] Thereafter, the gene expression levels of brain-derived neurotrophic factor (BDNF), stromal cell-derived factor-1 (SDF1), C-X-C chemokine receptor type 4 (CXCR4), interleukin 6 (IL-6), and interleukin 8 (IL-8) of the ADSCs were determined by RT-PCR. […]

[8] = test system: brain-derived neurotrophic factor (BDNF); assay: Gene expression level in ADSCs by RT-PCR: BDNF; format: cell-based, human; conditions: ADSCs, 10, 20 or 50 μg/ml (especially 20 μg/ml), 12 hours; FIG. 5
Method: as §6, §7

[9] = test system: stromal cell-derived factor-1 (SDF1); assay: Gene expression level in ADSCs by RT-PCR: SDF1; format: cell-based, human; conditions: ADSCs, 10, 20 or 50 μg/ml (especially 20 μg/ml), 12 hours; FIG. 5
Method: as §6, §7

[10] = test system: telomerase; assay: Telomerase expression level of ADSCs (Telomerase PCR ELISA kit); format: cell-based, human; conditions: 100 μM or 250 μM, 24 hours; FIG. 4
Method: as §6
The ADSCs were cultured in a 10 cm dish, and treated with valproic acid (VPA) (1 μM or 10 μM) or BP (comprising Z-BP 95%+E-BP 5%; purchased from ECHO Chemical) (100 μM or 250 μM) at different doses for 24 hours. Then, the telomerase expression level of the ADSCs was determined by a Telomerase PCR ELISA kit (Cat. No. 11854666910, Roche). […]

[11] = test system: interleukin 8 (IL-8); assay: Gene expression level in ADSCs by RT-PCR: IL-8; format: cell-based, human; conditions: ADSCs, 10, 20 or 50 μg/ml, 12 hours; FIG. 5
Method: as §6, §7

[12] = test system: C-X-C chemokine receptor type 4 (CXCR4); assay: Gene expression level in ADSCs by RT-PCR: CXCR4; format: cell-based, human; conditions: ADSCs, 10, 20 or 50 μg/ml (especially 20 μg/ml), 12 hours; FIG. 5
Method: as §6, §7

[13] = test system: human hepatocytes; assay: Phase II metabolism assay of n-butylidenephthalide, human hepatocytes, LC-MS/MS; format: in vitro ADME; conditions: Human cryopreserved hepatocytes, BP 50 μM, 37° C., 6 hours
Source text: as §1, §4

[14] = test system: rat hepatocytes; assay: Phase II metabolism assay of n-butylidenephthalide, rat hepatocytes, LC-MS/MS; format: in vitro ADME; conditions: Rat cryopreserved hepatocytes, BP 50 μM, 37° C., 6 hours
Source text: as §1, §4

[15] = test system: telomerase; conditions: previous research; cited from earlier work
[16] = 500 mg/kg-body weight once daily

Row | SMILES | Biotransformation pathway (Phase I metabolites of n-butylidenephthalide) [1] | Biotransformation pathway (Phase I metabolites of n-butylidenephthalide) [2] | Biotransformation pathway (Phase I metabolites of n-butylidenephthalide) [3] | also measured
1 | C/C=C/C=C1\OC(=O)c2ccccc21 [Compound (2)] | Dehydrogenation | Dehydrogenation | Dehydrogenation | –
2 | C/C=C/C=C1\OC(=O)c2c(O[C@@H]3OC(CO)[C@@H](O)[C@H](O)C3O)cccc21 (stereo partly drawn) [Compound (14)] | – | – | – | Biotransformation pathway (Phase II metabolites of n-butylidenephthalide) [4]: Dehydrogenation +
3 | CCCCC1(O)OC(=O)c2ccccc21 (stereo not drawn) [Compound (7)] | Hydrogenation (forming | Hydrogenation (forming | Hydrogenation (forming | –
4 | CCCC=C1OC(=O)C2=C1CCC=C2 [ligustilide, 3-butylidene-4,5-dihydrophthalide] | – | – | – | Longevity prolonged as compared to the control group [5, 16]: about 74.8±1.2 days; Time after which the BBB scale of the hind limbs decreased rapidly [6]: > 170 days
5 | CCCCC(=O)c1ccccc1C(=O)O [Compound (5)] | Hydrogenation (forming | Hydrogenation (forming | Hydrogenation (forming | –
6 | CCCC=C1OC(=O)c2ccccc21 [BP, n-butylidenephthalide] | – | – | – | Gene expression level of IL-6 [7]: increased; Gene expression level of BDNF [8]: increased; Longevity prolonged as compared to the control group ([5]; 250 mg/kg-body weight twice daily): about 91.3±16 days; Longevity prolonged as compared to the control group [5, 16]: about 22.7±2.8 days; Time after which the BBB scale of the hind limbs decreased rapidly [6]: > 135 days; Gene expression level of SDF1 [9]: increased; Telomerase activity (expression level of telomerase) of ADSCs [10]: higher telomerase activity; Gene expression level of IL-8 [11]: increased; Gene expression level of CXCR4 [12]: increased
7 | C=C1OC(=O)c2ccccc21 [Compound (8)] | Tri-Demethylation | Tri-Demethylation | Tri-Demethylation | –
8 | C/C=C/C=C1\OC(=O)c2c1cccc2S(=O)(=O)O [Compound (12)] | – | – | – | Biotransformation pathway (Phase II metabolites of n-butylidenephthalide) [13]: Dehydrogenation +; Biotransformation pathway (Phase II metabolites of n-butylidenephthalide) [14]: Dehydrogenation +
9 | CC(O)C/C=C1\OC(=O)c2ccccc21 (stereo not drawn) [Compound (4)] | Oxidation | Oxidation | Oxidation | –
10 | CCCC(CCC)C(=O)O [VPA, valproic acid] | – | – | – | Telomerase activity of ADSCs [15]: could increase the telomerase activity
